ChEMBL document CHEMBL6182901, “1,5-Disubstituted 1,2,3-triazoles: Molecular scaffolds for medicinal chemistry and biomolecular mimetics” (Eur J Med Chem, 2025)
Values after ≈ are worked out from the molar mass of the structure shown. Residues, ends and D or L forms follow the SMILES beside them.

What was measured:
[1] = Binding affinity to c-Src (unknown origin) assessed as inhibition constant by fluorescence based assay; design: species or system Homo sapiens
[2] = Binding affinity to c-Abl (unknown origin) assessed as inhibition constant by fluorescence based assay; design: species or system Homo sapiens
HeLa = test: Cytostatic activity against human HeLa cells measured for 72 hrs; assay type: functional; conditions: read-out: ED50 (the source's name)
Histone deacetylase = test: Inhibition of HDAC extracted from human HeLa cell nuclear extract by fluorescence assay; assay type: subcellular, Nucleus
EMT6 [3] = test: Anticancer activity against mouse EMT6 cells assessed as reduction in cell viability at 100 uM incubated for 48 hrs by XTT assay relative to control; assay type: functional
EMT6 [4] = test: Anticancer activity against mouse EMT6 cells assessed as reduction in cell viability incubated for 48 hrs by XTT assay; assay type: functional, cell-based; conditions: EMT6, 48 h
[5] = target: Human immunodeficiency virus type 1 reverse transcriptase (Human immunodeficiency virus 1, UniProt Q72547); test: Binding affinity to HIV-1 reverse transcriptase assessed as dissociation constant
[6] = Inhibition of bovine pancrease trypsin-catalyzed proteolysis of chromogenic substrate Boc-QAR-pNA; design: species or system Bos taurus
A549 = test: Cytotoxicity against human A549 cells assessed as reduction in cell viability incubated for 24 hrs by MTT assay; assay type: functional, cell-based; conditions: A549, 24 h
MDA-MB-231 = test: Cytotoxicity against human MDA-MB-231 cells assessed as reduction in cell viability incubated for 24 hrs by MTT assay; assay type: functional, cell-based; conditions: MDA-MB-231, 24 h
HepG2 = test: Cytotoxicity against human HepG2 cells assessed as reduction in cell viability incubated for 24 hrs by MTT assay; assay type: functional, cell-based; conditions: HepG2, 24 h
[7] = Binding affinity to Aplysia californica Y55W Acetylcholine-binding protein assessed as dissociation constant
[8] = Binding affinity to Aplysia californica Acetylcholine-binding protein assessed as dissociation constant
[9] = target: Acetylcholine-binding protein (Lymnaea stagnalis, UniProt P58154); test: Binding affinity to Lymnaea stagnalis Acetylcholine-binding protein assessed as dissociation constant
Chain of Acetylcholine-binding protein (P58154 whole entry): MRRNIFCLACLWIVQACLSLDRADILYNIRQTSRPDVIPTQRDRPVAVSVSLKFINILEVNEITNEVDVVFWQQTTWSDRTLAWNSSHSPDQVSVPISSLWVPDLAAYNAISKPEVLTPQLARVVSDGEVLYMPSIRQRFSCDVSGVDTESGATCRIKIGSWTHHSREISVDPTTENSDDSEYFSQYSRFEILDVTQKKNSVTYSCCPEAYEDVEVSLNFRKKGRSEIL

D-amino-acid oxidase = D-amino-acid oxidase (Homo sapiens, UniProt P14920); test: Binding affinity to human DAO assessed as inhibition constant
Chain of D-amino-acid oxidase (P14920 whole entry): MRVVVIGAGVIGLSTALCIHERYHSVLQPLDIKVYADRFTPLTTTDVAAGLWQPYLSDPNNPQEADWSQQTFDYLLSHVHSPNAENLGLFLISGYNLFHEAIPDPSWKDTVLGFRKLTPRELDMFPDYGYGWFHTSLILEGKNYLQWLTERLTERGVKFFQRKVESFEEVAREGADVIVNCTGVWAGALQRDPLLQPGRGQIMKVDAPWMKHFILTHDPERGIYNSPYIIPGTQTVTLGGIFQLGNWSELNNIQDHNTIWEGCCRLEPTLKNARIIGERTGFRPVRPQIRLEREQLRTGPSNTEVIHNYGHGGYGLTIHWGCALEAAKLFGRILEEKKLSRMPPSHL

SW480 = test: Anticancer activity against human SW480 cells assessed as reduction in cell viability incubated for 48 hrs by XTT assay; assay type: functional, cell-based; conditions: SW480, 48 h
Escherichia coli = test: Antibacterial activity against Escherichia coli assessed as reduction in microbial growth by CLSI based broth microdilution method; assay type: functional
Staphylococcus aureus = test: Antibacterial activity against Staphylococcus aureus assessed as reduction in microbial growth by CLSI based broth microdilution method; assay type: functional
[10] = target: C-X-C chemokine receptor type 4 (Homo sapiens, UniProt P61073); test: Displacement of 125I-CXCL12 from CXCR4 in human CCRF-CEM cells by competitive binding assay; assay type: cell-based
Chain of C-X-C chemokine receptor type 4 (P61073 whole entry): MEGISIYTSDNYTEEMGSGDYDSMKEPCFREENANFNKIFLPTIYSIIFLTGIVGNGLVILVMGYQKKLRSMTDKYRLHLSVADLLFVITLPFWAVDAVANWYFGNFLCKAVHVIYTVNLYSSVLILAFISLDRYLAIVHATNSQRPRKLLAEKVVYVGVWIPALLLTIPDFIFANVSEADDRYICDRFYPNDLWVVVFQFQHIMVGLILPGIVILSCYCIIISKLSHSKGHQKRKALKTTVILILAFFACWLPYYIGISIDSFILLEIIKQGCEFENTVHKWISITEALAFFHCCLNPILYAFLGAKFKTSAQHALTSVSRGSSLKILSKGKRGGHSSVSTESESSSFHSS

[11] = Inhibition of bovine pancrease trypsin by microplate reader analysis; design: species or system Bos taurus

## Nc1ncnc2c1c(-c1ccc(Cl)cc1)nn2-c1cccc(-c2cnnn2Cc2cccc(-c3ccccc3)c2)c1
[1]
  Ki: 44 nM
[2]
  Ki: > 125 µM

## CC(=O)OC[C@H]1O[C@@H](n2cc(CBr)nn2)[C@H](OC(C)=O)[C@@H](OC(C)=O)[C@@H]1OC(C)=O
HeLa
  EC50: 3.5 µg/mL (≈ 7.11 µM)

## CC(=O)OC[C@H]1O[C@@H](n2cc(CI)nn2)[C@H](OC(C)=O)[C@@H](OC(C)=O)[C@@H]1OC(C)=O
HeLa
  EC50: 2 µg/mL (≈ 3.71 µM)

## CC(=O)OC[C@H]1O[C@@H](n2nncc2CBr)[C@H](OC(C)=O)[C@@H](OC(C)=O)[C@@H]1OC(C)=O
HeLa
  EC50: 4 µg/mL (≈ 8.13 µM)

## CCC(=O)CCCCC[C@@H]1NC(=O)[C@@H](C(C)(C)C)n2cc(nn2)[C@H]([C@@H](C)CC)NC(=O)[C@H](Cc2c[nH]c3ccccc23)NC1=O
Histone deacetylase
  IC50: < 100 nM

## CC1(C)CC[C@]2(C(=O)OCc3cnnn3-c3ccc([N+](=O)[O-])cc3)CC[C@]3(C)C(=CC[C@@H]4[C@@]5(C)CC[C@H](O)C(C)(C)[C@@H]5CC[C@]43C)[C@@H]2C1
EMT6 [3]
  Activity: 74%
EMT6 [4]
  IC50: 74 µM

## N[C@H]1C[C@@H](N)[C@H](OCc2cnnn2CC(=O)c2ccc(-c3ccccc3)cc2)C1
[5]
  Kd: 3.3 µM

## CC[C@H](C)[C@@H]1NC(=O)[C@@H]2CCCN2C(=O)[C@@H]2CCCN2C(=O)[C@H]([C@@H](C)CC)NC(=O)[C@H](CO)NC(=O)[C@H](CCCCN)NC(=O)[C@@H]([C@H](C)O)NC(=O)[C@@H](NC(=O)[C@H](CCCNC(=N)N)NC(=O)CN)CSSC[C@@H](C(=O)N[C@@H](Cc2ccccc2)C(=O)N2CCC[C@H]2C(=O)N[C@@H](CC(=O)O)C(=O)O)NC1=O
[6]
  Ki: 1.48 nM

## O=C(Nc1ccccc1)[C@@H]1C[C@H]2CCc3cnnn3CCOc3cccc(c3)C(=O)N1C2
A549
  IC50: 46.3 µM
MDA-MB-231
  IC50: 43.7 µM
HepG2
  IC50: 36.3 µM

## NC(=O)[C@@H]1C[C@H]2CCc3cnnn3CCOc3cccc(c3)C(=O)N1C2
A549
  IC50: 41.3 µM
MDA-MB-231
  IC50: 28 µM
HepG2
  IC50: 34.7 µM

## C#Cc1cccc(-n2nc(-c3ccc(Cl)cc3)c3c(N)ncnc32)c1
[1]
  Ki: 1450 nM
[2]
  Ki: 7.15 µM

## N[C@H]1C[C@@H](N)[C@H](OCc2cnnn2CC(=O)c2ccc3ccccc3c2)C1
[5]
  Kd: 1.9 µM

## Cn1c(=O)cc(OCc2cn(C3CC4CC3[N+]4(C)C)nn2)c2ccccc21 (stereo unspecified)
[7]
  Kd: 17 nM
[8]
  Kd: 24 nM
[9]
  Kd: 0.96 nM

## Cc1cccc(-n2nncc2COC(=O)[C@]23CCC(C)(C)C[C@H]2C2=CC[C@@H]4[C@@]5(C)CC[C@H](O)C(C)(C)[C@@H]5CC[C@@]4(C)[C@]2(C)CC3)c1
EMT6 [4]
  IC50: 60 µM

## CC(C)CNC(=O)[C@@H]1C[C@H]2CCc3cnnn3CCOc3cccc(c3)C(=O)N1C2
A549
  IC50: 32.2 µM
MDA-MB-231
  IC50: 43.2 µM
HepG2
  IC50: 37.3 µM

## CC[C@H](C)[C@@H]1NC(=O)[C@@H]2CCCN2C(=O)[C@@H]2CCCN2C(=O)[C@H]([C@@H](C)CC)NC(=O)[C@H](CO)NC(=O)[C@H](CCCCN)NC(=O)[C@@H]([C@H](C)O)NC(=O)[C@@H](NC(=O)[C@H](CCCNC(=N)N)NC(=O)CN)CCn2nncc2C[C@@H](C(=O)N[C@@H](Cc2ccccc2)C(=O)N2CCC[C@H]2C(=O)N[C@@H](CC(=O)O)C(=O)O)NC1=O
[6]
  Ki: 2.4 nM

## O=C(Cn1nncc1CO/N=C(/Cc1ccc(O)cc1)C(=O)O)N[C@@H](Cc1ccccc1)C(=O)O
D-amino-acid oxidase
  Ki: 400 nM

## CC1(C)CC[C@]2(C(=O)OCc3cn(-c4ccc(Cl)cc4)nn3)CC[C@]3(C)C(=CC[C@@H]4[C@@]5(C)CC[C@H](O)C(C)(C)[C@@H]5CC[C@]43C)[C@@H]2C1
SW480
  IC50: 76 µM
EMT6 [4]
  IC50: 91.8 µM

## CC[C@H]1COC(=O)C[C@@H](O)[C@H](C)[C@@H](O[C@@H]2OC[C@@H](O)[C@H](N(C)C)[C@H]2O)[C@@H](CN(Cc2ccccc2)Cc2cnnn2-c2cnc3ccccc3c2)C[C@@H](C)C(=O)/C=C/C(C)=C/[C@@H]1CO
Escherichia coli
  MIC: 464 µg/mL
Staphylococcus aureus
  MIC: 4 µg/mL

## Cn1c(=O)cc(OCc2cnnn2C2C[C@@H]3C[C@H]2[N+]3(C)C)c2ccccc21 (stereo partly specified)
[7]
  Kd: 98.1 nM
[8]
  Kd: 331 nM
[9]
  Kd: 1.64 nM

## Nc1ncnc2c1c(-c1ccc(Cl)cc1)nn2-c1cccc(-c2cnnn2Cc2ccccc2)c1
[1]
  Ki: 207 nM
[2]
  Ki: > 125 µM

## [N-]=[N+]=NCC(=O)N[C@@H](Cc1ccccc1)C(=O)O
D-amino-acid oxidase
  Ki: 1 nM

## O=C(O)[C@@H]1C[C@H]2CCc3cnnn3CCOc3cccc(c3)C(=O)N1C2
A549
  IC50: 37.1 µM
MDA-MB-231
  IC50: 34.3 µM
HepG2
  IC50: 44.9 µM

## CC(=O)N[C@@H](CCCNC(=N)N)C(=O)N[C@@H](C)C(=O)N[C@H]1CCn2nncc2C[C@@H](C(=O)O)NC(=O)[C@H](Cc2c[nH]cn2)NC(=O)[C@H](Cc2ccc3ccccc3c2)NC(=O)[C@H](CCCNC(=N)N)NC(=O)C1
[10]
  IC50: 22 nM

## CC[C@H](C)[C@@H]1NC(=O)[C@H](CO)NC(=O)[C@@H](CCCCN)NC(=O)[C@@H]([C@H](C)O)NC(=O)[C@@H](NC(=O)[C@H](CCCNC(=N)N)NC(=O)CN)CCn2cc(nn2)C[C@@H](C(=O)N[C@@H](Cc2ccccc2)C(=O)N2CCC[C@H]2C(=O)N[C@@H](CC(=O)O)C(=O)O)NC(=O)[C@@H]([C@@H](C)CC)NC(=O)[C@@H]2CCCN2C(=O)[C@@H]2CCCN2C1=O
[6]
  Ki: 1910 nM

## N[C@H]1C[C@@H](N)[C@H](OCc2cnnn2CC(=O)c2ccc(-c3ccccn3)s2)C1
[5]
  Kd: 3.7 µM

## CC1(C)CC[C@]2(C(=O)OCc3cn(-c4ccc(Br)cc4)nn3)CC[C@]3(C)C(=CC[C@@H]4[C@@]5(C)CC[C@H](O)C(C)(C)[C@@H]5CC[C@]43C)[C@@H]2C1
SW480
  IC50: 29.6 µM
EMT6 [4]
  IC50: 91.8 µM

## CC(=O)N[C@@H](CCCNC(=N)N)C(=O)N[C@@H](C)C(=O)N[C@H]1CCn2cc(nn2)C[C@@H](C(=O)O)NC(=O)[C@H](Cc2c[nH]cn2)NC(=O)[C@H](Cc2ccc3ccccc3c2)NC(=O)[C@H](CCCNC(=N)N)NC(=O)C1
[10]
  IC50: 18 nM

## CC[C@H](C)[C@@H]1NC(=O)[C@@H]2CCCN2C(=O)[C@H](C)n2nncc2[C@H]([C@@H](C)CC)NC(=O)[C@H](CO)NC(=O)CNC(=O)[C@H]([C@@H](C)O)NC(=O)[C@@H](NC(=O)[C@H](CCCNC(=N)N)NC(=O)CN)CSSC[C@@H](C(=O)N[C@@H](Cc2ccccc2)C(=O)N2CCC[C@H]2C(=O)N[C@@H](CC(=O)O)C(=O)O)NC1=O (HELM PEPTIDE1{G.R.C.T.G.S.[CC[C@H](C)[C@H](N[*:1])c1cnnn1[C@@H](C)C(=O)[*:2]].P.I.C.F.P.D}$PEPTIDE1,PEPTIDE1,3:R3-10:R3$$$V2.0)
[11]
  Ki: 34 nM

## CC[C@H](C)[C@@H]1NC(=O)[C@H](CO)NC(=O)[C@H](CCCCN)NC(=O)[C@H]([C@@H](C)O)NC(=O)[C@@H](NC(=O)[C@H](CCCNC(=N)N)NC(=O)CN)CSSC[C@@H](C(=O)N[C@@H](Cc2ccccc2)C(=O)N2CCC[C@H]2C(=O)N[C@@H](CC(=O)O)C(=O)O)NC(=O)[C@H]([C@@H](C)CC)NC(=O)[C@@H]2CCCN2C(=O)[C@H](C)NC1=O (HELM PEPTIDE1{G.R.C.T.K.S.I.A.P.I.C.F.P.D}$PEPTIDE1,PEPTIDE1,3:R3-11:R3$$$V2.0)
[11]
  Ki: 178 nM

## CC[C@H](C)[C@@H]1NC(=O)[C@H](C)NC(=O)[C@@H]2CCCN2C(=O)[C@H]([C@@H](C)CC)NC(=O)[C@H](CO)NC(=O)[C@H](CCCCN)NC(=O)[C@H]([C@@H](C)O)NC(=O)[C@@H](NC(=O)[C@H](CCCNC(=N)N)NC(=O)CN)CSSC[C@@H](C(=O)N[C@@H](Cc2ccccc2)C(=O)N2CCC[C@H]2C(=O)N[C@@H](CC(=O)O)C(=O)O)NC1=O (HELM PEPTIDE1{G.R.C.T.K.S.I.P.A.I.C.F.P.D}$PEPTIDE1,PEPTIDE1,3:R3-11:R3$$$V2.0)
[11]
  Ki: 3.2 nM

## CC[C@H](C)[C@@H]1NC(=O)[C@H](C)n2nncc2[C@@H]2CCCN2C(=O)[C@H]([C@@H](C)CC)NC(=O)[C@H](CO)NC(=O)[C@H](CCCCN)NC(=O)[C@H]([C@@H](C)O)NC(=O)[C@@H](NC(=O)[C@H](CCCNC(=N)N)NC(=O)CN)CSSC[C@@H](C(=O)N[C@@H](Cc2ccccc2)C(=O)N2CCC[C@H]2C(=O)N[C@@H](CC(=O)O)C(=O)O)NC1=O (HELM PEPTIDE1{G.R.C.T.K.S.I.[C[C@@H](C(=O)[*:2])n1nncc1[C@@H]1CCCN1[*:1]].I.C.F.P.D}$PEPTIDE1,PEPTIDE1,3:R3-10:R3$$$V2.0)
[11]
  Ki: 255 nM
